Experimental data reported in patent publication US11311538B2, “Compositions and methods for targeting cancers” (YALE UNIVERSITY, priority 2018, dated 2022).

Assays:
[1] = LC/MS analysis of intratumoral BMN-673; type: in vivo, mouse; conditions: 24 h after single gavage dose of 1 or 10 mg/kg, LC/MS (FIG. 4J)
Description: In vivo efficacy studies: HEK293FT xenografts. Female athymic nu/nu mice (Hsd:Athymic Nude-Foxnlnu, Envigo) were used for all in vivo xenograft studies. Mice were quarantined for at least 1 week before experimental manipulation. Tumors were formed using shRNA-expressing versions of the tumorigenic human embryonic kidney cell-derived line, HEK293FT. HEK293FT is a subline of HEK293 cells that has been transformed by expression of SV40 Large T-antigen. […], or shCTRL (non-targeted control) expressing HEK293FT cells were implanted subcutaneously (5×10^6 cells in 0.1 cc PBS) in the right flank of nude mice. Two efficacy studies were conducted. In one, mice were randomized into treatment and non-treated groups (10 mice/group) at day 3, with treatment initiation 4 days post implant. […] For both studies, mice were visually observed daily and tumors were measured three times per week by calipers to determine tumor volume using the formula: Volume=L×W×W×0.532. […] P-values were determined by ANOVA with repeated measures. […] The concentrations of BMN-673 in tumor samples were determined using liquid chromatography with tandem mass spectrometry (LC-MS/MS). […] BMN673 was monitored using the positive electrospray ionization mode at the most sensitive and specific mass transition, m/z 381.0>228.8. […]

[2] = tested on: shCTRL-expressing HEK293FT tumor xenografts; assay: Tumor growth delay assay, shCTRL HEK293FT xenografts; type: in vivo, mouse
Description: In vivo efficacy studies: HEK293FT xenografts. Female athymic nu/nu mice (Hsd:Athymic Nude-Foxnlnu, Envigo) were used for all in vivo xenograft studies. Mice were quarantined for at least 1 week before experimental manipulation. Tumors were formed using shRNA-expressing versions of the tumorigenic human embryonic kidney cell-derived line, HEK293FT. HEK293FT is a subline of HEK293 cells that has been transformed by expression of SV40 Large T-antigen. […], or shCTRL (non-targeted control) expressing HEK293FT cells were implanted subcutaneously (5×10^6 cells in 0.1 cc PBS) in the right flank of nude mice. Two efficacy studies were conducted. In one, mice were randomized into treatment and non-treated groups (10 mice/group) at day 3, with treatment initiation 4 days post implant. In a second independent in vivo efficacy study, mice were injected as above with 10 mice per group, and treatment was started only once the tumor volumes reached […]. For both studies, mice were visually observed daily and tumors were measured three times per week by calipers to determine tumor volume using the formula: Volume=L×W×W×0.532. Mice were fed with a grain based rodent diet containing Doxycycline at 200 mg/kg (Bioserv, Catalog #S3888). […] P-values were determined by ANOVA with repeated measures. […]

With `Cn1ncnc1[C@H]1c2n[nH]c(=O)c3cc(F)cc(c23)N[C@@H]1c1ccc(F)cc1` [BMN-673, BMN-673 (Talazoparib)] the “intra-tumoral BMN-673 levels, shSDHB vs shCTRL HEK293FT tumors” value [1] was “no significant difference”, the “tumor growth vs vehicle, shCTRL tumors” value ([2]; treatment after tumors reached 95-150 mm^3, 0.5 mg/kg oral gavage once daily (FIG. 4I)) was “no growth inhibition” and the “tumor growth vs vehicle, shCTRL tumors” value ([2]; treatment beginning four days after implantation, 0.5 mg/kg oral gavage once daily (FIG. 4F)) was “no effect”.
